Key:
[1] = Antioxidant activity assessed as AAPH radical scavenging activity by measuring Trolox equivalent per microM of test compound measured every minute for 90 mins by ORAC-FL assay; assay type: physicochemical; details: 1.5 h
[2] = biological target: Amyloid-beta precursor protein (Homo sapiens) (UniProt P05067); assay: Inhibition of self-induced amyloid beta (1 to 42) aggregation (unknown origin) at 25 uM by Thioflavin T-based fluorometric assay
[3] = biological target: Acetylcholinesterase (Electrophorus electricus, UniProt O42275); assay: Inhibition of Electrophorus electricus AChE pre-incubated for 15 mins before acetylthiocholine chloride substrate addition by Ellman assay
Acetylcholinesterase, sequence (O42275 whole entry): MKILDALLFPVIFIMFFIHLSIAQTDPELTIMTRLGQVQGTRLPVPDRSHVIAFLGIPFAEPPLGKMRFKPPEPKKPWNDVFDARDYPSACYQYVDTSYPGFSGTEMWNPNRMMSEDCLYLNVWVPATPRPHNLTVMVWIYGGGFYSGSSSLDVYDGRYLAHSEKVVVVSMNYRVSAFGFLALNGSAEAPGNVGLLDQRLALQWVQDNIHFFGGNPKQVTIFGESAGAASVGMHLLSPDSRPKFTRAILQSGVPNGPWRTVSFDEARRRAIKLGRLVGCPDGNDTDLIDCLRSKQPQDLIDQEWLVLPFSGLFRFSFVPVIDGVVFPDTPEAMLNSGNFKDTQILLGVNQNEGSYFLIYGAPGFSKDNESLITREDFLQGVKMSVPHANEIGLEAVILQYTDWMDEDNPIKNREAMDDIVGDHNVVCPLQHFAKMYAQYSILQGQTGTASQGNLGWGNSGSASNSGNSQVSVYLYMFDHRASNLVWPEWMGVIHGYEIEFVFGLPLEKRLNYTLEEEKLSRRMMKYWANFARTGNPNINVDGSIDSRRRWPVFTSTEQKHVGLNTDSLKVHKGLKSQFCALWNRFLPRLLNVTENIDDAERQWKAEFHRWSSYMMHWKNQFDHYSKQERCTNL

[4] = biological target: Cholinesterase (Equus caballus) (UniProt P81908); assay: Inhibition of equine serum BuChE at 50 uM pre-incubated for 15 mins before butylthiocholine chloride substrate addition by Ellman assay
Cholinesterase (Equus caballus), sequence (P81908 whole entry): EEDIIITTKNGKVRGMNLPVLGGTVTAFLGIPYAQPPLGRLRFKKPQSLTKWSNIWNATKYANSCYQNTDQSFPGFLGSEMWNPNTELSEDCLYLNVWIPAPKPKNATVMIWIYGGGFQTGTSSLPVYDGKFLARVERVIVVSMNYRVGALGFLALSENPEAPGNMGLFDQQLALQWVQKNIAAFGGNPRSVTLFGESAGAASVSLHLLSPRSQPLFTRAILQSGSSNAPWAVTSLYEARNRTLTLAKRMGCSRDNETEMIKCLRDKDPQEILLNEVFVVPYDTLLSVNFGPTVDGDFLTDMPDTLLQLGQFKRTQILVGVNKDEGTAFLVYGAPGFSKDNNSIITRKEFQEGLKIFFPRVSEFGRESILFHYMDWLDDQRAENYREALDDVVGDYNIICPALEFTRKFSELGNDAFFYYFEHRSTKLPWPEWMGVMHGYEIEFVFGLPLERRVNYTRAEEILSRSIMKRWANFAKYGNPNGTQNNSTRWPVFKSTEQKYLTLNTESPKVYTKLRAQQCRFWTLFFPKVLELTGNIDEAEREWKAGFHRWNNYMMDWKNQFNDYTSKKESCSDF

[5] = in vitro; details: PAMPA
Description: Permeability of the compound at 100 ug/ml by PAMPA-BBB assay

[6] = biological target: Amyloid-beta precursor protein (Homo sapiens) (UniProt P05067); assay: Inhibition of self-induced amyloid beta (1 to 42) aggregation (unknown origin) at 10 uM by Thioflavin T-based fluorometric assay
[7] = biological target: Amyloid-beta precursor protein (Homo sapiens) (UniProt P05067); assay: Inhibition of self-induced amyloid beta (1 to 42) aggregation (unknown origin) at 50 uM by Thioflavin T-based fluorometric assay
[8] = system: SH-SY5Y; assay: Neuroprotective activity against hydrogen peroxide-induced cell injury in human SH-SY5Y cells assessed as cell viability at 10 uM incubated for 3 hrs after H2O2 exposure for 24 hrs by MTT assay; assay type: functional; details: read-out: Activity
[9] = system: SH-SY5Y; assay: Neuroprotective activity against hydrogen peroxide-induced cell injury in human SH-SY5Y cells assessed as cell viability incubated for 3 hrs after H2O2 exposure for 24 hrs by MTT assay; assay type: functional, cell-based
[10] = system: SH-SY5Y; assay: Neuroprotective activity against hydrogen peroxide-induced cell injury in human SH-SY5Y cells assessed as cell viability at 1 uM incubated for 3 hrs after H2O2 exposure for 24 hrs by MTT assay; assay type: functional; details: read-out: Activity
[11] = biological target: Amyloid-beta precursor protein (Homo sapiens) (UniProt P05067); assay: Inhibition of self-induced amyloid beta (1 to 42) aggregation (unknown origin) by Thioflavin T-based fluorometric assay
[12] = biological target: Amyloid-beta precursor protein (Homo sapiens) (UniProt P05067); assay: Induction of disaggregation of self-induced amyloid beta (1 to 42) fibril formation (unknown origin) at 25 uM incubated for 24 hrs by Thioflavin T-based fluorometric assay
[13] = Toxicity in human SH-SY5Y cells assessed as cell viability at 10 uM incubated for 24 hrs by MTT assay; assay type: cell-based; details: read-out: Activity

Amyloid-beta precursor protein (Homo sapiens), sequence (P05067 whole entry): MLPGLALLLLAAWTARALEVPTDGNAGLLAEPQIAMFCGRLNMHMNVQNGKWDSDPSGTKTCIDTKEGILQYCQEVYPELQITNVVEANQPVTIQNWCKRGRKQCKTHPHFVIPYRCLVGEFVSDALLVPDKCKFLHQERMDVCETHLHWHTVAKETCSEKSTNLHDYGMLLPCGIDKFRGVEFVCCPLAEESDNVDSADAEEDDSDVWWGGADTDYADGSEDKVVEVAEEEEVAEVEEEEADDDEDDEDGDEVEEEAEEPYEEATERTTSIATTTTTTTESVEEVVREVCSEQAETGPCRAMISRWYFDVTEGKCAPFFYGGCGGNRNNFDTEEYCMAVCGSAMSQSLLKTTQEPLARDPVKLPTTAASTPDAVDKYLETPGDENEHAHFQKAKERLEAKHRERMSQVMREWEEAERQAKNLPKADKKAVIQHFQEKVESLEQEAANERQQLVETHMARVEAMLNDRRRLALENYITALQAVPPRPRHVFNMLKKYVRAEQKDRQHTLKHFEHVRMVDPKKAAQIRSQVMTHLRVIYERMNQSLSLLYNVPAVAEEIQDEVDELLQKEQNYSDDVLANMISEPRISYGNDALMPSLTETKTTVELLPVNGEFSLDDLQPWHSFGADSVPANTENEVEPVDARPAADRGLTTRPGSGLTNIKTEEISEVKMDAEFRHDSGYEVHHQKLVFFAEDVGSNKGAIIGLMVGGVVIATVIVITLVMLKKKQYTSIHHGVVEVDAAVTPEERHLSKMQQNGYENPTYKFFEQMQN

SMILES | Activity [1] [equiv] | inhibition [2] [%] | IC50 [3] [µM] | inhibition [4] [%] | other results
COc1cc(/C=C/C(=O)NCCCN(C)Cc2ccccc2)ccc1O | 1.2 | 39.1 | 34.7 | < 5 | –
CN1C(C(=O)Nc2ccccn2)=C(O)c2ccccc2S1(=O)=O [PIROXICAM] | – | – | – | – | Papp at 100 ug/ml [5]: 0.63 ×10⁻⁶ cm/s
COc1cc(/C=C/C(=O)NCCCN(C)Cc2ccccc2OC)ccc1O | 1.3 | 30.8 | 25.1 | 15.8 | –
COc1cc(/C=C/C(=O)NCCCCN(C)Cc2ccccc2)ccc1O | 1.3 | 31.6 | 29.6 | < 5 | –
CCN(CCCCNC(=O)/C=C/c1ccc(O)c(OC)c1)Cc1ccccc1 | 1.1 | 33.8 | 16.5 | < 5 | –
COc1cc(/C=C/C(=O)NCCCCCCN(C)Cc2ccccc2OC)ccc1O | 1.3 | 36.6 | 8.5 | 27.6 | –
COc1cc(/C=C/C(=O)NCCCCN(C)Cc2ccccc2OC)ccc1O | 1.2 | 32.5 | 18 | 34.6 | –
CC(=O)[C@H]1CC[C@H]2[C@@H]3CCC4=CC(=O)CC[C@]4(C)[C@H]3CC[C@]12C [PROGESTERONE] | – | – | – | – | Papp at 100 ug/ml [5]: 15.9 ×10⁻⁶ cm/s
CCn1cc(C(=O)O)c(=O)c2cc(F)c(N3CCNC(C)C3)c(F)c21 (stereo not drawn) [LOMEFLOXACIN] | – | – | – | – | Papp at 100 ug/ml [5]: 0.52 ×10⁻⁶ cm/s
COc1cc(/C=C/C(=O)NCCCCCCN(C)Cc2ccccc2)ccc1O | 1.2 | 31.2 | 15.1 | < 5 | –
CCN(CCCCCCNC1=CC(=O)C(NCCCCCCN(CC)Cc2ccccc2OC)=CC1=O)Cc1ccccc1OC [MEMOQUIN] | – | 72.7 | 0.0067 | 5.8 | –
CCN(CCCNC(=O)/C=C/c1ccc(O)c(OC)c1)Cc1ccccc1OC | 1.1 | 35.2 | 15.9 | 31.4 | –
CCN(CCCCNC(=O)/C=C/c1ccc(O)c(OC)c1)Cc1ccccc1OC | 1.3 | 38.3 | 8.6 | < 5 | –
CCN(CCCNC(=O)/C=C/c1ccc(O)c(OC)c1)Cc1ccccc1 | 0.9 | 33.3 | 31.4 | < 5 | –
CCN(CCCCCCNC(=O)/C=C/c1ccc(O)c(OC)c1)Cc1ccccc1OC | 1.2 | 38.1 | 3.2 | 36.2 | inhibition [6]: 26.8%; inhibition [7]: 49.3%; viability at 10 µM [8]: 88.3%; Activity [9]: Dose-dependent effect; viability at 1 µM [10]: 68.6%; Papp at 100 ug/ml [5]: 5.53 ×10⁻⁶ cm/s; inhibition [11]: Dose-dependent effect; Activity [12]: 45.5%; viability at 24 h, 10 µM [13]: 98.3%
COc1cc(/C=C/C(=O)O)ccc1O [FERULATE] | 1.1 | 28.3 | > 100 | < 5 | –
COc1cc(/C=C/C(=O)CC(=O)/C=C/c2ccc(O)c(OC)c2)ccc1O | – | – | – | – | Activity [12]: 57.6%
CCN(CCCCCCNC(=O)/C=C/c1ccc(O)c(OC)c1)Cc1ccccc1 | 1.1 | 37.4 | 8.2 | 17.2 | –

From ChEMBL document CHEMBL3792354, “Design, synthesis and evaluation of novel ferulic acid-memoquin hybrids as potential multifunctional agents for the treatment of Alzheimer's disease” (Bioorg Med Chem Lett, 2016)
